Test results: US20050143336A1 (priority 2003, published 2005)
“Also recorded” adds a separate entry of the source. Read-outs that look alike come from different tables or passages of the source.

What was measured:
[1] = system: TNF-α, IL-6 in lungs, liver and spleen; assay: Organ cytokine levels (lungs, liver, spleen) after FUS1-nanoparticle with or without naproxen (ELISA); type: in vivo, C3H mice; conditions: naproxen 15 mg/kg orally pretreatment
Description: (§1) Cytokine profiles, Organ toxicity and Signalling molecules in C3H mice. To determine the cytokine profile, organ toxicity, signaling molecules responsible for inflammation, experiments were performed using immunocompetent female C3H mice. […] The amount of FUS1 plasmid injected was 100 μg. Serum and organ cytokine levels were determined by ELISA for murine TNF-α and murine Il-6. At indicated times after injection, blood was obtained via aspiration after right heart puncture. The blood was allowed to stand for 4 hours at 4° C. and then was centrifuged twice at 15,000 g for 10 minutes at 4° C. The supernatants (serum) were kept at −80° C. until used. Cytokine concentrations were quantified using specific ELISA kits (R&D systems) according to manufacturer's instructions. Organs were collected at 2, 4, and 15 h and were snap-frozen in liquid nitrogen and stored at […] until time of ELISA and Western blot analysis. At the time of ELISA, organs were slowly thawed on ice. The lung, liver and spleen was homogenized in 750 μl PBS containing a cocktail of protease inhibitors using a tissue homogenizer. The cytoplasmic fraction was isolated as the supernatant fraction following centrifugation at 15,000 g for 20 min at 4° C. The supernatant was used for the determination of TNF-α and IL-6 were quantitated by ELISA kits purchased from R&D Sytems and Biosource.fraction.

[2] = system: p38MAPK, JNK, p44/42 MAPK, ATF2, cJun, STAT3, COX-2 in RAW 264.7 cells; assay: Signaling molecules in RAW 264.7 macrophage cells transfected with FUS1-nanoparticle (western blot); type: cell-based, Mouse
Description: In vitro experiments. To determine the effect of nanoparticle-FUS1 complex on the activation of signaling molecules associated with inflammation, RAW macrophage cells were seeded in six-well plates (1×10^6 cells/well) and incubated overnight at 37° C. and 5% CO2. The following day, tissue culture medium was replaced with fresh 0.2% medium and incubated overnight at 37° C. and 5% CO2. […] Two-three hours after treatment, cells were transfected with FUS1-nanoparticle (2.5 μg DNA) in 0.2% serum medium. Cells were harvested at different time-points (2 h, 4 h, 15 h) after transfection, washed, and cell lysates prepared as previously described (Ramesh et al., 2001a). Untransfected cells treated with PBS served as control in these experiments. Cell lysates were subjected to western blotting analysis and probed with various antibodies as previously described (Ito et al., 2003). In all the experiments, β-actin was detected using anti-β-actin antibody (Sigma Chemicals, St. Louis, Mo.) as a measure of internal loading control.

[3] = system: serum TNF-α, IL-6, Il-1α and IFN-γ; assay: Serum cytokine profile after FUS1-nanoparticle with or without naproxen (ELISA); type: in vivo, C3H mice; conditions: naproxen 15 mg/kg orally pretreatment
Description: as §1

[4] = system: PGE2 production; assay: PGE2 production assay in cells transfected with FUS1-nanoparticles; type: cell-based, Human; conditions: naproxen 0.5 mM prior to FUS1-nanoparticles
Description: PGE2 production assay. Cells were seeded in 6-well plates (1-3×10^6 cells/well) and incubated at 37° C. Twenty-four hours later, the culture medium was replaced and replenished with fresh medium supplemented with 0.2% serum. […] At 3.5 h after treatment cells were transfected with FUS1-nanoparticles (2.5 μg DNA). The amount of PGE2 secreted into the culture supernatant at various time (2 h, 4 h, and 15 h) points was determined using the PGE2 enzyme immunoassay (Cayman Chemicals, Ann Arbor, Mich.). Assay was performed according to manufacturer's protocol.

[5] = 15 mg/kg orally
Description: At indicated times after injection, blood and organ was collected at different time points. TNF-α, IL-6, IL-1a and IFN-γ levels in serum (C) and TNF-α, IL-6 (D) in organs were determined using specific immunoassay kit. Data represent means±SD.
Animals were euthanized at 2, 4, 6, and 15 hours after treatment, and blood was collected. Blood samples were stored at −80° C. until all samples were collected. They were then submitted to the Drug Analysis Core Facility at M.D. Anderson Cancer Center.

[6] = system: FUS1 protein expression in the lungs; conditions: naproxen 15 mg/kg orally 2 hour prior to i.v. DOTAP:Chol-FUS1 complex vs complex alone
Description: In vivo treatment of immunocompetent animals by intravenous injection of DOTAP:Cholesterol-FUS1 complex. Female C3H mice were divided into 3 groups (n=12/group). […] Lung tissues were later homogenized, and total protein lysates prepared. Protein concentration in the lysate were determined by the BCA method and analyzed for FUS1 expression by western blot analysis. FUS1 protein was detected using a anti-FUS1 antibody. Untreated animals served as controls.

[7] = system: C3H mice

With `COc1ccc2cc([C@H](C)C(=O)O)ccc2c1` [Naproxen, naproxen] the “TNF-α, IL-6 levels in lungs, liver and spleen” value [1] was “significantly inhibited”, the “p38MAPK, pJNK, pATF-2 and pcjun” value ([2]; RAW 264.7, 0.5 mM naproxen pretreatment, 2 and 4 h) was “significantly inhibited” and the “phosphorylation of STAT 3” value ([2]; RAW 264.7, 0.5 mM naproxen, 4 and 15 h) was “inhibited”. The “expression of COX-2” value ([2]; RAW 264.7, 0.5 mM naproxen, 4 h) was “inhibited”, the “serum TNF-α, IL-6, Il-1α and IFN-γ levels induced by FUS1-nanoparticle” value [3] was “significantly inhibited” and the “inhibition of PGE2” value [4] was “almost complete; also recorded: significantly inhibition in PGE2 levels”. The “secreted PGE2 levels” value ([4]; 2-15 h) was 33 to 120 pg/mL, the “maximum levels of naproxen in the blood” value [5] was 3.5 μg/200 μl of blood and the “time by which naproxen reached baseline levels” value [5] was no more than 15 h. The “FUS1 protein expression in the lungs” value [6] was “No significant differences”, the percentage of survival ([7]; naproxen 5 mg/kg orally 2 to 3 h before FUS1-nanoparticle (100 μg FUS1)) was 50% and the percentage of survival ([7]; naproxen 15 mg/kg orally 2 to 3 h before FUS1-nanoparticle (100 μg FUS1)) was 100%.
